Here are results for two compounds from patent US8703752B2 (priority 2003, dated 2014).

The subject of one series is mammalian embryos. The conditions noted are these: cited from earlier work.
For series [1], the system named is Hedgehog protein signaling pathway. Nature of the series: Inhibition of Shh-induced differentiation of C3H10T1/2 cells (alkaline phosphatase activity, OD 415 nm). It counts as cell-based, mouse. The conditions noted are these: for inhibition of the alkaline phosphatase activity induced by the overexpression of Shh: 10 μM, 5 days, C3H10T1/2 cells transfected with Shh plasmid pRK5. As for the experimental part: The differentiation of the C3H10T1/2 cells, which is accompanied by induction of alkaline phosphatase activity, is then evaluated by measuring the optical density at 415 nm, in the presence of the alkaline phosphatase substrate, para-nitrophenyl phosphate. The values indicated correspond to the mean±standard error (n=4), and
The inhibition of differentiation of the C3H10T1/2 cells is expressed through the percentage alkaline phosphatase activity, relative to the nontreated cells (maximum activity=100%). The values indicated correspond to the mean±standard error (n=4) of two independent experiments.
The C3H10T1/2 pluripotent fibroblast cell line (ATCC) is cultured under the conditions recommended by the ATCC. C3H10T1/2 cells were transfected with the plasmid pRK5 encoding the mouse Shh protein (Taipale et al., Nature, 2001, 411, 349-354), using calcium phosphate, according to conventional protocols.

The target in another series is glucocorticoid receptors (Homo sapiens, UniProt P04150). The conditions noted are these: cited from earlier work.
Sequence of glucocorticoid receptors (P04150 whole entry): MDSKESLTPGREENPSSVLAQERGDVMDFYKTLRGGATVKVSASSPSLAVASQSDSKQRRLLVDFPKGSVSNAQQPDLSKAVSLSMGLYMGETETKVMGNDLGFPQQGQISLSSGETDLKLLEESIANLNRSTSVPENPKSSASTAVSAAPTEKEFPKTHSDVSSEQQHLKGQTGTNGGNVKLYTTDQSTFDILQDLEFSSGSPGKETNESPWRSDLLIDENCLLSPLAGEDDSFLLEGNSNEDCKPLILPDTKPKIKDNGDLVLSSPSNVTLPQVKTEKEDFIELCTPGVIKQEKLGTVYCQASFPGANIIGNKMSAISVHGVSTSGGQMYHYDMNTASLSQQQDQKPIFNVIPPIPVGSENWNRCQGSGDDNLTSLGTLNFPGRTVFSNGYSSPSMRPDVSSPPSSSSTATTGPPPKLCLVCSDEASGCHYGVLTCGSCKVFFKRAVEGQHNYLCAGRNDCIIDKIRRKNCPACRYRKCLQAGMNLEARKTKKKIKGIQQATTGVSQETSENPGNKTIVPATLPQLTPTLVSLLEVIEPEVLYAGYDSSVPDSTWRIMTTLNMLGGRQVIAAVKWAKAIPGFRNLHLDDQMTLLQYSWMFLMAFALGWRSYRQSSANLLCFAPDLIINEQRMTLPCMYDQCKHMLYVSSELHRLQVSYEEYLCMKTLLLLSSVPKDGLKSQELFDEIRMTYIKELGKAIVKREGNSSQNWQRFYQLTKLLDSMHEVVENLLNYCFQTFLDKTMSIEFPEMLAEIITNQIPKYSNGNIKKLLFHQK

As to `CC1=C2C[C@H]3[C@@H](CC=C4C[C@@H](O)CC[C@@]43C)[C@@H]2CC[C@]12O[C@@H]1C[C@H](C)CN[C@H]1[C@H]2C` [cyclopamine], in the series on mammalian embryos, the teratogenic effect entry was “teratogenic agent that causes holoprosencephaly and cyclopia”. Moreover, the “inhibition of the alkaline phosphatase activity induced by the overexpression of Shh” value in series [1] was “completely inhibited”.

Turning to `CC#C[C@]1(O)CC[C@H]2[C@@H]3CCC4=CC(=O)CCC4=C3[C@@H](c3ccc(N(C)C)cc3)C[C@@]21C` [mifepristone, 17β-hydroxy-11β-(4-dimethylaminophenyl)-17α-(prop-1-ynyl)estra-4,9-dien-3-one], the teratogenic effect entry with mammalian embryos was “devoid of any teratogenic effect”. The “affinity for glucocorticoid receptors” value on glucocorticoid receptors is “strong affinity”. Further, the “inhibition of the alkaline phosphatase activity induced by the overexpression of Shh” value in series [1] was “completely inhibits”. Besides, in series [1] (C3H10T1/2 cells transfected with Shh plasmid pRK5, treated 5 days, 1 nM to 10 μM, alkaline phosphatase activity, mean±standard error (n=4), two experiments, read-out: concentration that inhibits 50% of cell differentiation (IC50)), the IC50 came to 3.7 µM.
